From patent publication US12234482B2, “Culture medium for expanding and culturing human liver progenitor cells and application thereof” (Guangzhou Institutes of Biomedicine and Health, Chinese …, priority 2019, dated 2025)

Columns and labels:
HBs [1] = assay: Effects of signaling pathways regulated by small molecules on proliferation of HBs; format: cell-based, human; conditions: small molecule regulating a signaling pathway; FIGS. 2B and 2C
Experimental: Further, effects of the signaling pathways on the proliferation and differentiation of HBs were analyzed by regulating the related signaling pathways with small molecules.

HBs [2] = assay: Effects of signaling pathways regulated by small molecules on characteristics of HBs (AFP expression); format: cell-based, human; conditions: FIG. 2D
Text: In addition to proliferation, the effects of the related signaling pathways on the characteristics of HBs were further analyzed.

Structure (SMILES) | proliferation of HBs (HBs [1]) | expression of AFP / maintenance of the characteristics of HBs (HBs [2])
Cc1cccc(-c2nn(C(=S)Nc3ccccc3)cc2-c2ccnc3ccccc23)n1 [A8301] | promoted the proliferation of HBs | promoted the expression of liver cell-related genes such as AFP
Cc1c[nH]c(-c2cnc(NCCNc3ccc(C#N)cn3)nc2-c2ccc(Cl)cc2Cl)n1 [CHIR, CHIR99021] | promoted the proliferation of HBs | inhibited the expression of AFP
CNC1CCC(N(Cc2cccc(-c3ccncc3)c2)C(=O)c2sc3ccccc3c2Cl)CC1 (stereo not drawn) [SAG] | promoted the proliferation of HBs | promoted the expression of liver cell-related genes such as AFP
